According to US11925629B2, “Heterocyclic inhibitors of ERK1 and ERK2 and their use in the treatment of cancer” (Asana Biosciences, LLC, priority 2015, dated 2024):

Assays:
Format in all cases: cell-based, human
[1] = tested on: HCT116 (colorectal carcinoma, K Ras G13D) cells; experiment: Cell proliferation (Alamar Blue) assay, HCT116; settings: Homo sapiens, HCT-116, HCT116 cells
How it was run: (§1)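 Fluorescence read-out (ex 540 nm, em 590 nm) after 1-3 h with 1× Alamar Blue, following 72 h compound exposure at 37° C./5% CO2. Compounds tested at typically 0.0005 to 10 uM, 3-fold steps; IC50 by sigmoidal dose-response (variable slope).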

[2] = tested on: phosphorylation of RSK1(S380) (the downstream target of ERK1/2); experiment: Phospho-RSK1(S380) ELISA assay in HT-29 cells; settings: Homo sapiens, HT-29, HT29 cells, phospho-RSK1(S380); read-out: Mechanistic Cell Assay RSK1 Phos HT29 IC50
How it was run: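 HT-29 colorectal carcinoma cells (B-RafV600E), plated overnight at 37° C./5% CO2, were treated with compound dilutions for 2 h. Lysates were analysed by phospho-RSK1(Ser380) sandwich ELISA with absorbance at 450 nm. IC50 came from a sigmoidal variable-slope dose-response fit.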

[3] = tested on: HT-29 (colorectal carcinoma, B-RafV600E) cells; experiment: Cell proliferation (Alamar Blue) assay, HT-29; settings: Homo sapiens, HT-29, HT29 cells
How it was run: as §1

| Structure (SMILES) | IC50 [1] [µM] | IC50 [2] [µM] | IC50 [3] [µM] |
| --- | --- | --- | --- |
| Cc1cnc(Nc2ccc3c(c2)OC(F)(F)O3)cc1-n1ccc(C(=O)NC(CO)c2ccccc2)c1 (stereo not drawn) [Example 80, 1-(2-((2,2-difluorobenzo [d][1,3]dioxol-5-yl)-amino)-5-methyl-pyridin-4-yl)-N-(2-hydroxy-1-phenyl-ethyl)-1H-pyrrole-3-carboxamide] | > 2.5 | > 2.5 | > 2.5 |
| Cc1cnc(Nc2ccc3c(c2)OCO3)nc1-n1ccc(C(=O)N[C@H](CO)c2ccc(F)c(Cl)c2)c1 [Example 87, (S)-1-(2-(benzo[d][1,3]dioxol-5-ylamino)-5-methyl-pyrimidin-4-yl)-N-(1-(3-chloro-4-fluorophenyl)-2-hydroxy-ethyl)-1H-pyrrole-3-carboxamide] | 0.5 to 2.5 | 0.1 to 0.25 | 0.25 to 0.5 |
| Cc1cnc(Nc2ccc(F)cc2Cl)cc1-n1ccc(C(=O)NC(CO)c2cccc(Cl)c2)c1 (stereo not drawn) [Example 91, 1-(2-((2-chloro-4-fluorophenyl)amino)-5-methyl-pyridin-4-yl)-N-(1-(3-chlorophenyl)-2-hydroxy-ethyl)-1H-pyrrole-3-carboxamide] | > 2.5 | 0.5 to 2.5 | 0.5 to 2.5 |
| Cc1cnc(Nc2ccc3c(c2)OC(C)(C)O3)nc1-n1ccc(C(=O)NC(CO)c2ccccc2)c1 (stereo not drawn) [Example 95, 1-(2-((2,2-dimethyl-benzo[d][1,3]dioxol-5-yl)-amino)-5-methyl-pyrimidin-4-yl)-N-(2-hydroxy-1-phenylethyl)-1H-pyrrole-3-carboxamide] | 0.5 to 2.5 | 0.25 to 0.5 | 0.25 to 0.5 |
| Cc1cnc(Nc2ccc3c(c2)OC(C)(C)O3)nc1-n1ccc(C(=O)NC(CO)c2cccc(Cl)c2)c1 (stereo not drawn) [Example 96, N-(1-(3-chloro-phenyl)-2-hydroxy-ethyl)-1-(2-((2,2-dimethyl-benzo[d][1,3]dioxol-5-yl)amino)-5-methyl-pyrimidin-4-yl)-1H-pyrrole-3-carboxamide] | 0.5 to 2.5 | 0.25 to 0.5 | 0.25 to 0.5 |
| CC[C@@H](CO)Nc1cc(-n2ccc(C(=O)NC(CO)c3ccccc3)c2)c(C)cn1 (stereo partly drawn) [Example 100, N-(2-hydroxy-1-phenyl-ethyl)-1-(2-(((S)-1-hydroxy-butan-2-yl)amino)-5-methyl-pyridin-4-yl)-1H-pyrrole-3-carboxamide] | > 2.5 | 0.25 to 0.5 | > 2.5 |
| Cc1cn(-c2nc(Nc3ccc(F)cc3)ncc2C)cc1C(=O)NC(CO)c1cccc(Cl)c1 (stereo not drawn) [Example 107, N-(1-(3-chlorophenyl)-2-hydroxy-ethyl)-1-(2-((4-fluoro-phenyl)amino)-5-methyl-pyrimidin-4-yl)-4-methyl-1H-pyrrole-3-carboxamide] | 0.5 to 2.5 | 0.5 to 2.5 | 0.5 to 2.5 |
| CC[C@@H](CO)Nc1cc(-n2ccc(C(=O)NC(CO)c3cccc(Cl)c3)c2)ccn1 (stereo partly drawn) [Example 109, N-(1-(3-chloro-phenyl)-2-hydroxy-ethyl)-1-(2-(((S)-1-hydroxy-butan-2-yl)amino)pyridin-4-yl)-1H-pyrrole-3-carboxamide] | > 2.5 | 0.25 to 0.5 | > 2.5 |
| Cc1cn(-c2ccnc(Nc3ccc(F)cc3)n2)cc1C(=O)NC(CO)c1cccc(Cl)c1 (stereo not drawn) [Example 110, N-(1-(3-chloro-phenyl)-2-hydroxy-ethyl)-1-(2-((4-fluoro-phenyl)-amino)pyrimidin-4-yl)-4-methyl-1H-pyrrole-3-carboxamide] | > 2.5 | > 2.5 | > 2.5 |
| Cc1cnc(Nc2ccc(F)cc2)nc1-n1ccc(C(=O)NC(CO)c2cccc(Cl)c2)c1 (stereo not drawn) [Example 113, N-(1-(3-chloro-phenyl)-2-hydroxy-ethyl)-1-(2-((4-fluoro-phenyl)amino)-5-methyl-pyrimidin-4-yl)-1H-pyrrole-3-carboxamide] | 0.1 to 0.25 | 0.1 to 0.25 | 0.1 to 0.25 |
| Cc1cnc(Nc2ccc(F)cc2)nc1-n1ccc(C(=O)NC(CO)c2ccccc2)c1 (stereo not drawn) [Example 114, 1-(2-((4-fluoro-phenyl)amino)-5-methyl-pyrimidin-4-yl)-N-(2-hydroxy-1-phenylethyl)-1H-pyrrole-3-carboxamide] | 0.25 to 0.5 | 0.1 to 0.25 | 0.5 to 2.5 |
| Cc1cnc(NC2CC2)nc1-n1ccc(C(=O)NC(CO)c2cccc(Cl)c2)c1 (stereo not drawn) [Example 115, N-(1-(3-chloro-phenyl)-2-hydroxy-ethyl)-1-(2-(cyclopropyl-amino)-5-methyl-pyrimidin-4-yl)-1H-pyrrole-3-carboxamide] | > 2.5 | 0.25 to 0.5 | > 2.5 |
| O=C(N[C@H](CO)c1cccc(Cl)c1)c1cn(-c2ccnc(NC3CC3)c2)cn1 [Example 116, (S)-N-(1-(3-chlorophenyl)-2-hydroxy-ethyl)-1-(2-(cyclopropyl-amino)pyridin-4-yl)-1H-imidazole-4-carboxamide] | > 2.5 | 0.5 to 2.5 | > 2.5 |
| Cc1cnc(NC(C)c2ccccc2)nc1-n1ccc(C(=O)NC(CO)c2ccccc2)c1 (stereo not drawn) [Example 117, N-(2-hydroxy-1-phenyl-ethyl)-1-(5-methyl-2-((1-phenylethyl)amino)pyrimidin-4-yl)-1H-pyrrole-3-carboxamide] | > 2.5 | 0.5 to 2.5 | > 2.5 |
| Cc1cnc(Nc2ccc(F)cc2)nc1-n1cnc(C(=O)NC(CO)c2ccccc2)c1 (stereo not drawn) [Example 118, 1-(2-((4-fluoro-phenyl)amino)-5-methyl-pyrimidin-4-yl)-N-(2-hydroxy-1-phenylethyl)-1H-imidazole-4-carboxamide] | 0.5 to 2.5 | 0.25 to 0.5 | 0.1 to 0.25 |
| COc1cc(Nc2ncc(C)c(-n3ccc(C(=O)NC(CO)c4ccccc4)c3)n2)cc(OC)c1OC (stereo not drawn) [Example 121, N-(2-hydroxy-1-phenylethyl)-1-(5-methyl-2-((3,4,5-trimethoxy-phenyl)amino)pyrimidin-4-yl)-1H-pyrrole-3-carboxamide] | 0.25 to 0.5 | 0.25 to 0.5 | 0.25 to 0.5 |
| Cc1cnc(NC2CCOC2)nc1-n1ccc(C(=O)NC(CO)c2cccc(Cl)c2)c1 (stereo not drawn) [Example 123, N-(1-(3-chlorophenyl)-2-hydroxy-ethyl)-1-(5-methyl-2-((tetrahydro-furan-3-yl)amino)pyrimidin-4-yl)-1H-pyrrole-3-carboxamide] | 0.5 to 2.5 | 0.1 to 0.25 | 0.25 to 0.5 |
| O=C(NC(CO)c1cccc(Cl)c1)c1ccn(-c2cc(Nc3ccccc3)ncc2Cl)c1 (stereo not drawn) [Example 124, 1-(5-chloro-2-(phenyl-amino)pyridin-4-yl)-N-(1-(3-chlorophenyl)-2-hydroxy-ethyl)-1H-pyrrole-3-carboxamide] | > 2.5 | 0.5 to 2.5 | 0.5 to 2.5 |
| Cc1cnc(Nc2ccc(F)cc2)nc1-n1ccc(C(=O)N[C@H](CO)c2ccc(F)c(Cl)c2)c1 [Example 125, (S)-N-(1-(3-chloro-4-fluorophenyl)-2-hydroxy-ethyl)-1-(2-((4-fluoro-phenyl)-amino)-5-methyl-pyrimidin-4-yl)-1H-pyrrole-3-carboxamide] | 0.25 to 0.5 | 0.1 to 0.25 | 0.25 to 0.5 |
| COc1cc(Nc2ncc(C)c(-n3ccc(C(=O)N[C@H](CO)c4ccc(F)c(Cl)c4)c3)n2)cc(OC)c1OC [Example 126, (S)-N-(1-(3-chloro-4-fluorophenyl)-2-hydroxy-ethyl)-1-(5-methyl-2-((3,4,5-trimethoxy-phenyl)amino)pyrimidin-4-yl)-1H-pyrrole-3-carboxamide] | ≤ 0.1 | 0.1 to 0.25 | 0.1 to 0.25 |
